Reference: publication PMC8406298, “Discovery of Fungus-Specific Targets and Inhibitors Using Chemical Phenotyping of Pathogenic Spore Germination” (mBio, 2021)

Experiments:
[1] = system: Cryptococcus yeast (CHY3833 and CHY3836); assay: Yeast replication secondary screen (OD600); format: cell-based, Cryptococcus neoformans serotype D (deneoformans); details: 10 μM, 12 h at 30°C
Method: (ii) Yeast replication. CHY3833 and CHY3836 were each grown in YPD liquid overnight at 30°C to saturation and then resuspended in 0.5× YPD at an OD600 of 0.005. Strains were aliquoted into 384-well plates with inhibitors and grown for 12 h at 30°C at […] before OD600 readings were taken. Compounds that caused a >10% decrease in growth were considered yeast growth inhibitors.

[2] = system: normal human dermal fibroblasts (NHDF) cells; assay: Fibroblast cytotoxicity (CellTiter-Glo); format: cell-based; details: 10 µM
Method in brief: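 Normal human dermal fibroblasts, 1 × 10^3 per well, exposed to compounds at 10 μM for 72 h at 37°C. Viability read as ATP-dependent CellTiter-Glo luminescence. Dose-response runs titrated compounds from 80 μM to 0.5 μM in duplicate.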

| Structure (SMILES) | Yeast Inhibition: % Inhibition [1] | Cytotoxicity: Relative Cell Viability (% of Negative Control) [2] |
| --- | --- | --- |
| O=C(Nc1ccc2sccc2c1)c1ccc([N+](=O)[O-])s1 [compound 3629287] | 97.9% | 19.4 % of Negative Control |
| CSC1=Nc2cccnc2Nc2ccccc21 [compound 16824016] | 20.9% | 94.9 % of Negative Control |
| Cc1cc(NC(=O)c2cccc(Oc3ccccc3)c2)on1 [compound 25813521] | 19.4% | 105.8 % of Negative Control |
| O=S(=O)(Nc1nc2c(F)cccc2s1)c1ccc(Cl)s1 [compound 16934170] | -6.6% | 77.5 % of Negative Control |
| CCCC(CCC)C(=O)N1CCN(c2ccc(-c3cccnc3)nn2)CC1 [compound 25283686] | 2.8% | 103.7 % of Negative Control |
| Cc1cc(-c2nnc(NC(=O)c3ccc(C(=O)c4ccccc4)cc3)o2)nn1C [compound 25283140] | -15.6% | 79.9 % of Negative Control |
| Cc1ccc2occ(C=O)c(=O)c2c1 [compound 688709] | 100.0% | 91.6 % of Negative Control |
| Nc1nc(Cl)cc(Nc2cccc(C(F)(F)F)c2)n1 [compound 42589452] | 100.9% | 51.8 % of Negative Control |
| CCCc1cc(C(=O)OC)c(N2C(=O)C=CC2=O)s1 [compound 7456205] | 101.6% | 4.1 % of Negative Control |
| O=C(CCSc1ccc(Cl)cc1)Nc1ccc2scnc2c1 [compound 18585549] | 29.1% | 96.1 % of Negative Control |
| CCOC(=O)c1ccc(NC(=O)CCc2ccc(CC)o2)cc1 [compound 652808] | 28.0% | 113.1 % of Negative Control |
| COC(=O)c1c(NC(=O)c2ccc(C(C)(C)C)cc2)sc2c1CCN(C(C)C)C2 [compound 4684724] | 50.4% | 34.9 % of Negative Control |
| CC(=O)c1ccc(OCCOc2ccc(C#N)cc2)cc1 [compound 1713451] | 41.1% | 106.4 % of Negative Control |
| O=C(N=C1C(Cl)=C(Cl)C(=O)c2ccccc21)c1ccc(Cl)cc1 [compound 4111118] | 100.7% | 7.1 % of Negative Control |
| O=C(CCc1ccccc1Br)N1CCC(c2cccs2)CC1 [compound 71807060] | 5.9% | 100.7 % of Negative Control |
| Cc1nc(NC(=O)CCl)sc1C(=O)OCC(C)C [compound 2139195] | 99.1% | 6.3 % of Negative Control |
| O=C(Cc1cccc2ccccc12)N1CCC(c2ccsc2)CC1 [compound 71786990] | 8.3% | 94.3 % of Negative Control |
| S=C1SCN(Cc2ccccn2)CN1Cc1ccco1 [compound 3242906] | 100.6% | 103.5 % of Negative Control |
| Cc1cc(C(=O)NCC2Cc3ccccc3CO2)c(C)o1 (stereo not shown) [compound 91626508] | 53.9% | 98.3 % of Negative Control |
| Cc1ccc(C)c(CSc2nc3ccccc3[nH]2)c1 [compound 899259] | 45.3% | 84.5 % of Negative Control |
| NC(=O)c1ccsc1NC(=O)c1ccc(Cl)cc1Cl [compound 7167022] | 52.4% | 83.5 % of Negative Control |
| Cl.Cl.OC(COc1cccc2ccccc12)CN1CCN(c2ccc(F)cc2)CC1 (stereo not shown) [compound 45283772] | 44.0% | 96.8 % of Negative Control |
| Cc1ccc(N2C(=O)C=CC2=O)c([N+](=O)[O-])c1 [compound 2834581] | 101.2% | 4.3 % of Negative Control |
| O=C(COc1ccccc1F)N1CCC(Oc2ncccc2Br)CC1 [compound 71799471] | 2.6% | 101.4 % of Negative Control |
| C=CCN(CC=C)CC(O)CN1c2ccccc2Sc2ccccc21 (stereo not shown) [compound 2896856] | 43.9% | 5.4 % of Negative Control |

| Structure (SMILES) | Yeast Inhibition: % Inhibition [1] | Cytotoxicity: Relative Cell Viability (% of Negative Control) [2] |
| --- | --- | --- |
| CC1Cc2ccccc2N1C(=O)CCn1c(=O)sc2ccccc21 (stereo not shown) [compound 3163780] | -1.3% | 59.5 % of Negative Control |
| CC(=O)c1cccc(NC(=O)c2cc(Cl)sc2Cl)c1 [compound 7120750] | 72.7% | 79.8 % of Negative Control |
| CCCCCCCNS(=O)(=O)c1ccc(OCC)cc1 [compound 4102712] | 46.8% | 43.9 % of Negative Control |
| Cl.Fc1ccc(Nc2nc(-c3ccoc3)cs2)cc1F [compound 72720194] | 29.6% | 70.6 % of Negative Control |
| Cc1ccc(Nc2ccc(N3CCN(C(=O)Cc4ccc(F)cc4)CC3)nn2)cc1 [compound 49671361] | -10.5% | 102.4 % of Negative Control |
| COc1ccc(/C=C/c2nc3ccccc3[nH]2)cc1 [compound 5769808] | 70.2% | 14.4 % of Negative Control |
| Cc1oc2cc(OCCN3CCN(c4ccccc4F)CC3)ccc2c(=O)c1-c1ccccc1 [compound 24280258] | 7.5% | 103.4 % of Negative Control |
| O=C(C1CCC1)N1CCCCC(c2ccc(Cl)cc2)C1 (stereo not shown) [compound 76150259] | -2.1% | 108.6 % of Negative Control |
| Cc1ccc(N2C(=O)CC(Sc3ccccc3C(=O)N3CCOCC3)C2=O)cc1 (stereo not shown) [compound 2951953] | 52.3% | 94.9 % of Negative Control |
| NC(=O)c1ccsc1NC(=O)/C=C/c1ccccc1 [compound 6104220] | 51.7% | 50.8 % of Negative Control |
| Cc1cc(C)c2sc(NN)nc2c1 [compound 2049855] | 100.6% | 38.9 % of Negative Control |
| Cc1nc(Oc2ccccc2)cc(N2CCN(C(=O)/C=C/c3ccccc3)CC2)n1 [compound 42065409] | 15.5% | 90.0 % of Negative Control |
| Cc1ccc(Nc2cc(Cl)nc(N)n2)cc1Cl [compound 243059] | 98.9% | 46.1 % of Negative Control |
| CN(C)S(=O)(=O)N1CCN(CC(O)COc2ccc3cc(Br)ccc3c2)CC1 (stereo not shown) [compound 2981975] | 70.4% | 88.7 % of Negative Control |
| O=C(c1ccc(OC(F)(F)F)cc1)N(Cc1ccoc1)Cc1cccs1 [compound 71804107] | 7.9% | 94.0 % of Negative Control |
| Oc1ccc2cc(Br)ccc2c1 [compound 27144] | 100.0% | 31.7 % of Negative Control |
| Cc1n[nH]c(C)c1Br [compound 76937] | 22.1% | 59.9 % of Negative Control |
| O=C(Nc1cnc(Oc2ccccc2)nc1)c1cccc(Cl)c1 [compound 71799766] | 7.9% | 99.9 % of Negative Control |
| CC1CCN(c2ncnc3sccc23)CC1 [compound 2238992] | 73.6% | 70.0 % of Negative Control |
| O=c1/c(=C/c2ccc(F)cc2F)sc2nc3ccccc3n12 [compound 2354424] | 88.9% | 81.4 % of Negative Control |
| Cc1cc(C(=O)NCCC(O)c2cccc3ccccc23)c(C)o1 (stereo not shown) [compound 71787916] | 28.8% | 101.1 % of Negative Control |
| O=C(c1ccc2cc[nH]c2c1)N1CCCCC(c2ccc(Cl)cc2)C1 (stereo not shown) [compound 76150266] | -14.0% | 92.9 % of Negative Control |
| Oc1ccccc1-c1cc2ccccc2[nH]1 [compound 700009] | 82.2% | 96.3 % of Negative Control |
| COc1ccc(CCN2C(=O)C=CC2=O)cc1OC [compound 282938] | 101.4% | 24.9 % of Negative Control |
| CCCc1cc(=O)[nH]c(-n2nc(C)cc2C)n1 [compound 44116743] | 96.0% | 64.3 % of Negative Control |
